From patent publication US20240197755A1, “Pharmaceutical composition for use in the therapeutic treatment of cancer and complications of cancer” (priority 2016, published 2024)

Legend:
[1] = test system: Hep3B (hepatocellular carcinoma); assay: Antiproliferative effect on Hep3B cell line, 72 h exposure; assay type: cell-based, human; conditions: 72 hours of exposure
Description: (§1) Different human Hep3B (hepatocellular carcinoma), MCF-7 (breast cancer), DU-145 (prostate cancer) cell lines were studied. They were selected on the basis of their ability to overexpress at least one protein from among reptin, pontin, and survivin. The stromal cells were also studied in order to determine the impact of the composition according to the invention in the tumor microenvironment. These cells were maintained in DMEM and supplemented with 10% fetal bovine serum (FBS) and 1% antibiotic-antimycotic solution (MSP) containing penicillin, streptomycin, and amphotericin B under standard growth conditions (5% CO2, 37° C., humidified atmosphere). The compositions above were dissolved and diluted in DMSO.
(§2) The cells above were treated with increasing solutions for 72 h in complete cell media. All treatment and control protocols were prepared as described previously.

DU-145 (prostate cancer) = assay: Antiproliferative effect on DU-145 cell line, 72 h exposure; assay type: cell-based, human; conditions: DU-145, 72 hours of exposure
Description: as §1, §2

MCF-7 (breast cancer) = assay: Antiproliferative effect on MCF-7 cell line, 72 h exposure; assay type: cell-based, human; conditions: MCF-7, 72 hours of exposure
Description: as §1, §2

[2] = rats, oral, 50 mg/kg, 18 consecutive days; cited from earlier work
HCCLM3 cells = conditions: cited from earlier work
U251/AMD cells = conditions: cited from earlier work

Row | Structure (SMILES) | antiproliferative effect [1] | antiproliferative effect (DU-145 (prostate cancer)) | antiproliferative effect (MCF-7 (breast cancer)) | mortality and systemic toxicity [2] | expression of the BDNF protein (HCCLM3 cells; HCCLM3 cells) | cell proliferation of HCCLM3 cells (HCCLM3 cells; as a function of concentration and time) | IC50 of U251/AMD cells (U251/AMD cells; AMD, with beta-elemene) [µg/mL] | intracellular accumulation of AMD (U251/AMD cells; U251/AMD cells)
1 | C=C(C)[C@@H]1CC[C@]2(C)CC[C@]3(C)[C@H](CC[C@@H]4[C@@]5(C)CC[C@H](O)C(C)(C)[C@@H]5CC[C@]43C)[C@@H]12 [lupeol] | more pronounced antiproliferative effect | more pronounced antiproliferative effect | more pronounced antiproliferative effect | neither mortality nor systemic toxicity | marked decrease | inhibits cell proliferation |  | 
2 | C=C[C@]1(C)CC[C@@H](C(=C)C)C[C@H]1C(=C)C [Composition 13-elemene, beta-elemene] |  |  |  |  |  |  | 0.051 | increases the intracellular accumulation of AMD
3 | O=CC=Cc1ccccc1O [2-hydroxycinnamaldehyde] | more pronounced antiproliferative effect | more pronounced antiproliferative effect | more pronounced antiproliferative effect |  |  |  |  | 
